Values quoted from earlier work, collected in US8062633B2, “Surface sanitizer for the food industry based on three new lactic acid bacteria that have antagonistic action against Listeria monocytogenes, the microorganism that causes listeriosis in humans” (Universidad Austral de Chile, priority 2009, dated 2011).

What was measured:
[1] = system: Listeria monocytogenes Scott A; conditions: tofu stored at 10° C.
L. monocytogenes = conditions: 48 h of incubation

nisin
development of L. monocytogenes in tofu [1]: Listeria started to grow again from the second day onward | regrowth of L. monocytogenes in culture broth (L. monocytogenes): developed resistance and grew again after 48 h
